{
  "source": "paper PMC9728188",
  "about": "“Cloning and Functional Characterization of Putative Escherichia coli ABC Multidrug Efflux Transporter YddA” (Journal of Microbiology and Biotechnology, 2020)",
  "type_in_all_cases": "cell-based",
  "key": {"[1]": {"molecular_target": "T1, YddA (Escherichia coli, UniProt P31826)", "T1 sequence (P31826 whole entry)": "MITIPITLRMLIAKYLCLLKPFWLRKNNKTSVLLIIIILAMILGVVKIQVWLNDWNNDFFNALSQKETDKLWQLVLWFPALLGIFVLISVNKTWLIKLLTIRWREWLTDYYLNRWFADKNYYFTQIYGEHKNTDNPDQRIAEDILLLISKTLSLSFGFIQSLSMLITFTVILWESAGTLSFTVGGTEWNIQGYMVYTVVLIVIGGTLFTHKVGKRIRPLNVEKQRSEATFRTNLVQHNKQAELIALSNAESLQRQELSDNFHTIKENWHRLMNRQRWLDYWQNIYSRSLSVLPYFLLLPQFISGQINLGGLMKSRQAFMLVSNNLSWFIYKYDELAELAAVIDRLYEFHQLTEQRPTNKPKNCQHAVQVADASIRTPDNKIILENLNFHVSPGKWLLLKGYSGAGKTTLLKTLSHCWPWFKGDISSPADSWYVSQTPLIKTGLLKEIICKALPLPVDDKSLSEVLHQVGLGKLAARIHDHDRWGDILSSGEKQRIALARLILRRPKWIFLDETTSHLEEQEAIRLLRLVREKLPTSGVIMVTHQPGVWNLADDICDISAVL", "test": "fluorescence efflux and accumulation assays in whole cells, yddA knockout vs parent strains; also inhibits norfloxacin efflux"}, "[2]": {"molecular_target": "T1, YddA", "test": "fluorescence efflux and accumulation assays in whole cells, yddA knockout vs parent strains"}, "[3]": {"molecular_target": "T1, YddA", "test": "inhibition of norfloxacin efflux in whole cells (fluorescence)", "excerpt": "inhibition of norfloxacin efflux in whole cells (fluorescence) on YddA | Efflux of norfloxacin by YddA transporter was inhibited by reserpine"}},
  "data": [
    {"smiles": "CC[n+]1c(-c2ccccc2)c2cc(N)ccc2c2ccc(N)cc21", "note": "[EB, ethidium bromide]", "values": [
      {"measurement": "fluorescence efflux and accumulation assays in whole cells, yddA knockout vs par", "setting": "[1]", "result": "indicating that yddA knockout reduced EB efflux, which increased the accumulation of EB in cells"}
    ]},
    {"smiles": "CCn1cc(C(=O)O)c(=O)c2cc(F)c(N3CCNCC3)cc21", "note": "[norfloxacin]", "values": [
      {"measurement": "fluorescence efflux and accumulation assays in whole cells, yddA knockout vs par", "setting": "[2]", "result": "The results showed that knockout of yddA led to less norfloxacin efflux out of cells."}
    ]},
    {"smiles": "COC(=O)[C@H]1[C@H]2C[C@@H]3c4[nH]c5cc(OC)ccc5c4CCN3C[C@H]2C[C@@H](OC(=O)c2cc(OC)c(OC)c(OC)c2)[C@@H]1OC", "note": "[reserpine]", "values": [
      {"measurement": "IC50", "setting": "[3]", "result": 120, "unit": "µM"}
    ]}
  ]
}
